Source: patent publication US10730870B2, “Compounds and methods for the enhanced degradation of targeted proteins” (Arvinas, Inc., priority 2015, dated 2020)
pIC50: −log10 of the molar value.

Target: VHL (Homo sapiens (Human), UniProt P40337)
Experiment: VHL fluorescence polarization (FP) competition assay
Assay type: binding

| pIC50 (0.25% in DMSO) | pIC50 (1% in DMSO) | pIC50 (10% in DMSO) | Structure (SMILES) |
| --- | --- | --- | --- |
| 5.64 | 6.24 | 6.07 | CC[C@H](C)[C@@H](C(=O)N1C[C@H](O)C[C@H]1C(=O)NCc1ccc(-c2scnc2C)cc1)N1Cc2ccccc2C1=O [Example 30, (2S,4R)-4-hydroxy-1-((2S,3S)-3-methyl-2-(1-oxoisoindolin-2-yl)pentanoyl)-N-(4-(4-methylthiazol-5-yl)benzyl)pyrrolidine-2-carboxamide] |
| 5.49 | 5.89 | 5.68 | CC[C@H](C)[C@H](NC(=O)CCC(C)C)C(=O)N1C[C@H](O)C[C@H]1C(=O)NCc1ccc(-c2scnc2C)cc1 [Example 31, (2S,4R)-4-hydroxy-1-((2S,3S)-3-methyl-2-(4-methylpentanamido)pentanoyl)-N-(4-(4-methylthiazol-5-yl)benzyl)pyrrolidine-2-carboxamide] |
| 5.65 | 5.94 | 5.47 | Cc1ncsc1-c1ccc(CNC(=O)[C@@H]2C[C@@H](O)CN2C(=O)[C@@H](NCCC(C)C)C2CCCC2)cc1 [Example 32, (2S,4R)-1-((S)-2-cyclopentyl-2-(isopentylamino)acetyl)-4-hydroxy-N-(4-(4-methylthiazol-5-yl)benzyl)pyrrolidine-2-carboxamide] |
| 5.71 | 6.27 | 5.97 | Cc1ncsc1-c1ccc(CNC(=O)[C@@H]2C[C@@H](O)CN2C(=O)[C@H](C(C)C)N2Cc3c(F)cccc3C2=O)cc1 [Example 33, (2S,4R)-1-((S)-2-(4-fluoro-1-oxoisoindolin-2-yl)-3-methylbutanoyl)-4-hydroxy-N-(4-(4-methylthiazol-5-yl)benzyl)pyrrolidine-2-carboxamide] |
| 5.67 | 6.18 | 5.93 | Cc1ncsc1-c1ccc(CNC(=O)[C@@H]2C[C@@H](O)CN2C(=O)[C@H](C(C)C)N2Cc3cc(C#N)ccc3C2=O)cc1 [Example 34, (2S,4R)-1-((S)-2-(5-cyano-1-oxoisoindolin-2-yl)-3-methylbutanoyl)-4-hydroxy-N-(4-(4-methylthiazol-5-yl)benzyl)pyrrolidine-2-carboxamide] |
| 5.69 | 6.29 | 5.89 | Cc1ncsc1-c1ccc(CNC(=O)[C@@H]2C[C@@H](O)CN2C(=O)[C@H](C(C)C)N2Cc3c(C#N)cccc3C2=O)cc1 [Example 35, (2S,4R)-1-((S)-2-(4-cyano-1-oxoisoindolin-2-yl)-3-methylbutanoyl)-4-hydroxy-N-(4-(4-methylthiazol-5-yl)benzyl)pyrrolidine-2-carboxamide] |
| 5.18 | 5.45 | 5.26 | Cc1ncsc1-c1ccc(CNC(=O)[C@@H]2C[C@@H](O)CN2C(=O)[C@@H](NC(=O)C2CCCCC2)C(C)(C)C)cc1 [Example 36, (2S,4R)-1-((S)-2-(cyclohexanecarboxamido)-3,3-dimethylbutanoyl)-4-hydroxy-N-(4-(4-methylthiazol-5-yl)benzyl)pyrrolidine-2-carboxamide] |
| 5.72 | 4.69 | 5.13 | CSC[C@@H](C(=O)N1C[C@H](O)C[C@H]1C(=O)NCc1ccc(-c2scnc2C)cc1)N1Cc2ccccc2C1=O [Example 37, (2S,4R)-4-hydroxy-N-(4-(4-methylthiazol-5-yl)benzyl)-1-((R)-3-(methylthio)-2-(1-oxoisoindolin-2-yl)propanoyl)pyrrolidine-2-carboxamide] |
| 5.66 | 6.12 | 5.96 | Cc1ncsc1-c1ccc(CNC(=O)[C@@H]2C[C@@H](O)CN2C(=O)[C@H](C2CCCC2)N2Cc3ccccc3C2=O)cc1 [Example 38, (2S,4R)-1-((S)-2-cyclopentyl-2-(1-oxoisoindolin-2-yl)acetyl)-4-hydroxy-N-(4-(4-methylthiazol-5-yl)benzyl)pyrrolidine-2-carboxamide] |
| 6.02 | 6.16 | 5.79 | Cc1ncsc1-c1ccc([C@H](C)NC(=O)[C@@H]2C[C@@H](O)CN2C(=O)[C@H](C(C)C)N2Cc3ccccc3C2=O)cc1 [Example 39, (2S,4R)-4-hydroxy-N-[(1S)-1-[4-(4-methyl-1,3-thiazol-5-yl)phenyl]ethyl]-1-[(2S)-3-methyl-2-(1-oxo-2,3-dihydro-1H-isoindol-2-yl)butanoyl]pyrrolidine-2-carboxamide] |
| 4.76 | 5.63 | 5.41 | CC(C)[C@@H](C(=O)N1C[C@H](O)C[C@H]1C(=O)NCc1ccc(-c2ccccc2)cc1)N1Cc2ccccc2C1=O [Example 40, (2S,4R)—N-(biphenyl-4-ylmethyl)-4-hydroxy-1-((S)-3-methyl-2-(1-oxoisoindolin-2-yl)butanoyl)pyrrolidine-2-carboxamide] |
| 5.14 | 5.92 | 5.52 | CC(C)[C@@H](C(=O)N1C[C@H](O)C[C@H]1C(=O)NCc1ccc(-c2ccn[nH]2)cc1)N1Cc2ccccc2C1=O [Example 41, (2S,4R)—N-(4-(1H-pyrazol-5-yl)benzyl)-4-hydroxy-1-((S)-3-methyl-2-(1-oxoisoindolin-2-yl)butanoyl)pyrrolidine-2-carboxamide] |
|  | 5.31 | 4.80 | Cc1ncsc1-c1ccc(CNC(=O)[C@@H]2C[C@@H](O)CN2C(=O)[C@H](C(C)C)N2Cc3cccc(Br)c3C2=O)cc1 [Example 42, (2S,4R)-1-((S)-2-(7-bromo-1-oxoisoindolin-2-yl)-3-methylbutanoyl)-4-hydroxy-N-(4-(4-methylthiazol-5-yl)benzyl)pyrrolidine-2-carboxamide] |
|  | 6.04 | 5.92 | Cc1ncsc1-c1ccc(CNC(=O)[C@@H]2C[C@@H](O)CN2C(=O)[C@@H](NC(=O)c2ccc(C#N)cc2)C(C)(C)C)cc1 [Example 43, (2S,4R)-1-((S)-2-(4-cyanobenzamido)-3,3-dimethylbutanoyl)-4-hydroxy-N-(4-(4-methylthiazol-5-yl)benzyl)pyrrolidine-2-carboxamide] |
|  | 6.41 | 6.33 | Cc1ncsc1-c1ccc(CNC(=O)[C@@H]2C[C@@H](O)CN2C(=O)[C@@H](NC(=O)CCc2ccccc2)C(C)(C)C)cc1 [Example 44, (2S,4R)-1-((S)-3,3-dimethyl-2-(3-phenylpropanamido)butanoyl)-4-hydroxy-N-(4-(4-methylthiazol-5-yl)benzyl)pyrrolidine-2-carboxamide] |
|  | ~4.49 | 3.33 | Cc1ncsc1-c1ccc(CNC(=O)[C@@H]2C[C@@H](O)CN2C(=O)[C@H]([C@H](C)O)N2Cc3ccccc3C2=O)cc1 [Example 45, (2S,4R)-4-hydroxy-1-((2S,3S)-3-hydroxy-2-(1-oxoisoindolin-2-yl)butanoyl)-N-(4-(4-methylthiazol-5-yl)benzyl)pyrrolidine-2-carboxamide] |
|  | 1.71 | 2.29 | Cc1ncsc1-c1ccc(CNC(=O)[C@@H]2C[C@@H](O)CN2C(=O)C(C)(C)N2Cc3ccccc3C2=O)cc1 [Example 46, (2S,4R)-4-hydroxy-1-(2-methyl-2-(1-oxoisoindolin-2-yl)propanoyl)-N-(4-(4-methylthiazol-5-yl)benzyl)pyrrolidine-2-carboxamide] |
|  | 6.75 | 6.47 | Cc1ncsc1-c1ccc(CNC(=O)[C@@H]2C[C@@H](O)CN2C(=O)[C@H](C(C)C)N2Cc3cccc(C#N)c3C2=O)cc1 [Example 47, (2S,4R)-1-((S)-2-(7-cyano-1-oxoisoindolin-2-yl)-3-methylbutanoyl)-4-hydroxy-N-(4-(4-methylthiazol-5-yl)benzyl)pyrrolidine-2-carboxamide] |
|  | 5.42 | 5.33 | Cc1ncsc1-c1ccc(CNC(=O)[C@@H]2C[C@@H](O)CN2C(=O)[C@H](CS)N2Cc3ccccc3C2=O)cc1 [Example 48, (2S,4R)-4-hydroxy-1-((R)-3-mercapto-2-(1-oxoisoindolin-2-yl)propanoyl)-N-(4-(4-methylthiazol-5-yl)benzyl)pyrrolidine-2-carboxamide] |
|  |  | 3.61 | Cc1ncsc1-c1ccc(CNC(=O)[C@@H]2C[C@@H](O)CN2C(=O)C2(N3Cc4ccccc4C3=O)CC2)cc1 [Example 49, (2S,4R)-4-hydroxy-N-(4-(4-methylthiazol-5-yl)benzyl)-1-(1-(1-oxoisoindolin-2-yl)cyclopropanecarbonyl)pyrrolidine-2-carboxamide] |
|  |  | 3.63 | Cc1ncsc1-c1ccc(CNC(=O)[C@@H]2C[C@@H](O)CN2C(=O)C2(N3Cc4ccccc4C3=O)CCCC2)cc1 [Example 50, (2S,4R)-4-hydroxy-N-(4-(4-methylthiazol-5-yl)benzyl)-1-(1-(1-oxoisoindolin-2-yl)cyclopentanecarbonyl)pyrrolidine-2-carboxamide] |
|  | 4.25 | 2.82 | Cc1ncsc1-c1ccc(CNC(=O)[C@@H]2C[C@@H](O)CN2C(=O)[C@@H](NC(=O)CCC(C)C)[C@H](C)O)cc1 [Example 51, (2S,4R)-4-hydroxy-1-((2S,3S)-3-hydroxy-2-(4-methylpentanamido)butanoyl)-N-(4-(4-methylthiazol-5-yl)benzyl)pyrrolidine-2-carboxamide] |
|  | 5.61 | 5.43 | Cc1ncsc1-c1ccc(CNC(=O)[C@@H]2C[C@@H](O)CN2C(=O)[C@@H](NC(=O)CCC(C)C)c2cccs2)cc1 [Example 52, (2S,4R)-4-hydroxy-1-((R)-2-(4-methylpentanamido)-2-(thiophen-2-yl)acetyl)-N-(4-(4-methylthiazol-5-yl)benzyl)pyrrolidine-2-carboxamide] |
|  | 6.32 | 5.99 | COCC#Cc1ccc2c(c1)CN([C@H](C(=O)N1C[C@H](O)C[C@H]1C(=O)NCc1ccc(-c3scnc3C)cc1)C(C)C)C2=O [Example 53, (2S,4R)-4-hydroxy-1-((S)-2-(5-(3-methoxyprop-1-ynyl)-1-oxoisoindolin-2-yl)-3-methylbutanoyl)-N-(4-(4-methylthiazol-5-yl)benzyl)pyrrolidine-2-carboxamide] |
|  | 6.08 | 5.92 | Cc1ncsc1-c1ccc(CNC(=O)[C@@H]2C[C@@H](O)CN2C(=O)C2(N3Cc4ccccc4C3=O)CCCCC2)cc1 [Example 54, (2S,4R)-4-hydroxy-N-(4-(4-methylthiazol-5-yl)benzyl)-1-(1-(1-oxoisoindolin-2-yl)cyclohexanecarbonyl)pyrrolidine-2-carboxamide] |
